Experimental data as given in US20250188062A1, “TRIAZINE COMPOUNDS AND METHODS OF MAKING AND USING THE SAME” (Athos Therapeutics, Inc., priority 2021, published 2025).
pKd: −log10 of the molar value.

How the values were obtained:
[1] = test system: THP-1 human monocytes; assay: Cellular assay for anti-inflammatory properties: cytokine ELISA multiplex in LPS-stimulated PMA-differentiated THP-1 macrophages; format: cell-based; details: 1 μM, 4 hours before 100 ng/mL LPS for 4 or 24 hours; cytokine protein in media vs LPS+PMA only
Method: The anti-inflammatory properties of five JMJD3 inhibitors (99, 92, 93, 98, and 95, in no particularly order) were evaluated in an immune cellular assay targeting key pro-inflammatory cytokines involved in the pathogenesis of multiple autoimmune disease.
Specifically, THP-1 human monocytes were grown in 6-well plates (RPMI 1640+10% FBS+1% P/S). After washing with PBS the THP-1 cells were differentiated into macrophages using 20 nM of phorbol 12-myristate 13-acetate (PMA) for 24 hrs. 99, 92, 93, 98, and 95) (1 μM) were added into the macrophages, which are incubated for 4 hours before the addition of 100 ng/mL lipopolysaccharide (LPS) for either 4 or 24 hours. Next, the macrophages are collected via centrifugation at 1.2K rpm for 5 min and use their media to evaluate cytokine protein levels by using the Bio-rad Cytokine ELISA multiplex assay (cat. No M5000031YV). The supernatants from macrophages treated only with only LPS+PMA were collected and used as negative controls.

[2] = test system: Naïve CD4+ T human cells; assay: Cellular assay for FoxP3 induction activity (qPCR of FoxP3 mRNA); format: cell-based; details: CD4+ T cells activated with anti-CD3, IL-2 and TGF-β for 5 days; FoxP3 mRNA by qPCR on day 5; FIG. 3
Method: CD4+CD25+FOXP3+ regulatory T cells (Tregs) suppress pro-inflammatory cells and signals and are critical mediators of tolerance, inhibiting excessive inflammation and autoimmunity. Also, treatment of CD4+ T cells with interleukin 2 (IL-2) and transforming growth factor beta (TGF-β) signaling are important for FOXP3 induction and Treg formation.
Naïve CD4+ T human cells (cat. no 2W-200, Lonza) were cultured and activated with artificial antigen-presenting cells and soluble anti-CD3 (100 ng/ml) in the presence of IL-2 (300 U/ml) and TGF-β (10 ng/ml) for 5 days. On day 3, cells were transfected with an anti-sense RNA against JMJD3 (cat. No 1299001, Thermo) using Lipofectamine 2000 (cat. No 11668027, Thermo). On day 5, RNA was extracted and qPCR analysis was performed to evaluate FoxP3 mRNA levels by using the following primers: F: 5′-TCCACAACATGCGACCCCCTTTCA-3′ and R: 5′-ACAGCCCCCTTCTCGCTCTCCA-3′ having a 217 bp product. All JMJD3 inhibitors (99, 92, 93, 98, and 95) in CD4+ T cells induced 7-fold FoxP3 expression levels, thus moving towards differentiation and formation of Tregs. […] Thus, genetic or pharmacological inhibition of […] will result into FoxP3 activation and induction of Treg formation. Based on this evidence, JMJD3 inhibitors (99, 92, 93, 98, and 95)) could be used in autoimmune diseases where T-regulatory cells have therapeutic potential. There is increasing evidence and literature derived from human clinical studies (Arellano B et al., Regulatory T Cell-based Therapies for Autoimmunity, Discov Med, 22:73-80, 2016).

[3] = biological target: JMJD3 (Homo sapiens, UniProt O15054); assay: JMJD3 binding assay (Kd, affinity beads, qPCR readout); details: 11-point 3-fold dilution series, 0.9% DMSO, room temperature 1 hour; read-out: JMJD3 Affinity (binding constant, Kd)
Method: Test compounds were prepared as 111X stocks in 100% DMSO. Kd values are determined using an 11-point 3-fold compound dilution series with three DMSO control points. All compounds for Kd measurements were distributed by acoustic transfer (non-contact dispensing) in 100% DMSO. The compounds were then diluted directly into the assays such that the final concentration of DMSO was 0.9%. All reactions were performed in polypropylene 384-well plate. Each was a final volume of 0.02 ml. The assay plates were incubated at room temperature with shaking for 1 hour and the affinity beads were washed with wash buffer (lx PBS, 0.05% Tween 20). The beads were then re-suspended in elution buffer (lx PBS, 0.05% Tween 20, 0.5 μM non-biotinylated affinity ligand) and incubated at room temperature with shaking for 30 minutes. The kinase concentration in the eluates was measured by qPCR. Binding constants are calculated with a standard dose-response curve using the Hill equation:
The Hill Slope was set to −1. Curves were fitted using a non-linear least square fit with the Levenberg-Marquardt algorithm. The binding data is summarized in Table 2 where A is less than 100 nM, B is 100 to 500 nM, and C is greater than 500 nM.

[4] = Stability under acidic LCMS condition; format: physicochemical; details: 0.1% formic acid mobile phase; hydrolyzed —OH product found
Method: All reactions were carried out under an atmosphere of argon. Reagents and solvents were used from commercial sources without additional purification. Hydrogenation reactions were run under a balloon. Microwave reactions were performed using a CEM Discover SP microwave synthesizer. Sample purification was conducted on a Buchi Pureflash with ELSD purification system using pre-packed commercially available silica gel columns. Thin layer chromatography (TLC) was performed on aluminium plates using Merck Kiesegel 60 F254 (230-400 mesh) fluorescent treated silica which were visualized under ultraviolet light (254 nm), or by staining with potassium permanganate or ninhydrin solution as appropriate. All Nuclear Magnetic Resonance (NMR) spectra were acquired on a Bruker Avance III HD 400 MHz NMR spectrometer; chemical shifts are reported in ppm (δ). […] All compounds purity was analyzed on Agilent 1260 Infinity II Lab LC Series HPLC (1260 Quatpum, 1260 vial autosampler, ICC column oven, 1260 DAD WR detector). […] All compounds that were evaluated in biological assay had >90% and animal study had >95% purity. […]

JMJD3, sequence (O15054 whole entry, species assumed): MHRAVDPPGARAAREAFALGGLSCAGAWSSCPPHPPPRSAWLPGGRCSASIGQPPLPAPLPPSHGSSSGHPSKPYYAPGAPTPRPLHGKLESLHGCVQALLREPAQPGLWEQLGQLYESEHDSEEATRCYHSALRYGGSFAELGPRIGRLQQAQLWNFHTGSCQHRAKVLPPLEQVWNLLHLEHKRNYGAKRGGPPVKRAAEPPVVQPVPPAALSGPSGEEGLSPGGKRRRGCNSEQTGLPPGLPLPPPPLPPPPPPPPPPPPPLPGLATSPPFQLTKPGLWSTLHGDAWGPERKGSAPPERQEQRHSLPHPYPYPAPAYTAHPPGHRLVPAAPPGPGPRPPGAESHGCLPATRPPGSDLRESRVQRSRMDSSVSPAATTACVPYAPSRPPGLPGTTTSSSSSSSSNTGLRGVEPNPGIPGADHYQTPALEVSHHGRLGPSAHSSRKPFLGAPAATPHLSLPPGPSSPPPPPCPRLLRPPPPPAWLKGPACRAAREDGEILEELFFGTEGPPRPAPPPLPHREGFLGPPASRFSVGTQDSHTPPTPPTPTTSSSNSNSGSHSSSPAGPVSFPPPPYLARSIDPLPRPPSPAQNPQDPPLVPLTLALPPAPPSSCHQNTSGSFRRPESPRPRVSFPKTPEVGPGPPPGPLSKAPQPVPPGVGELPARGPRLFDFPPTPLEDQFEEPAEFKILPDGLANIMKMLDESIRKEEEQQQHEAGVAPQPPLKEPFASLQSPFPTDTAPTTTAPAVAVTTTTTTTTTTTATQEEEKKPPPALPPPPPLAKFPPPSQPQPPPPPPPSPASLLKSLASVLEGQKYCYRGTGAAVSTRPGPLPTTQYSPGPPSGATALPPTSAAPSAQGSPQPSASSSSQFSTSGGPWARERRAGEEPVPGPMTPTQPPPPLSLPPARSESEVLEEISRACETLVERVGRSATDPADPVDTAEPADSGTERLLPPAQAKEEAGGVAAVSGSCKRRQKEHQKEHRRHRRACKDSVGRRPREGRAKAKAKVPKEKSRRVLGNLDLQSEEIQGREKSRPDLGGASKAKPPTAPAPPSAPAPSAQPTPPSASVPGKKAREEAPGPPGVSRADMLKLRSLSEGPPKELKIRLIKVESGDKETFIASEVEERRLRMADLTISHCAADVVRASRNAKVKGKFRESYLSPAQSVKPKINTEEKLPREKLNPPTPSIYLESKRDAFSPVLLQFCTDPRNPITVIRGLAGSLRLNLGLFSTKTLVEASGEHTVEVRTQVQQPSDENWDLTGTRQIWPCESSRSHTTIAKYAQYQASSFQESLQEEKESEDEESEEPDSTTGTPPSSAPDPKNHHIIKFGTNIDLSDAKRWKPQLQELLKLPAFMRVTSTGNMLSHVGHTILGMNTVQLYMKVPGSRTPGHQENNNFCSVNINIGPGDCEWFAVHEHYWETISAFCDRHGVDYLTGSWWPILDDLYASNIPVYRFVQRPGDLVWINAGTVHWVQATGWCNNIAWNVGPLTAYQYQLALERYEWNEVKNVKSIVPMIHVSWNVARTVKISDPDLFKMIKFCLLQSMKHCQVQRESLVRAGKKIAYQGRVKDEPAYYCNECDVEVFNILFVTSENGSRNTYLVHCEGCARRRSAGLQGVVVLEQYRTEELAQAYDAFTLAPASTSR

c1ccc2c(c1)ccn2-c1nc(OC2CCCC2)nc(-n2cccn2)n1 [Compound 95, 1-(4-(Cyclopentyloxy)-6-(1H-pyrazol-1-yl)-1,3,5-triazin-2-yl)-1H-indole]
suppression of TNF-alpha (TNFA) [1]: suppression | suppression of interleukin 1beta (IL1B) [1]: suppression | suppression of interleukin 5 (IL5) [1]: suppression | suppression of interleukin 6 (IL6) [1]: suppression | suppression of interleukin 8 (IL8) [1]: suppression | suppression of interleukin 13 (IL13) [1]: suppression | FoxP3 expression levels (induction) [2]: 7 fold | pKd [3]: > 7.00 | stability under acidic LCMS condition [4]: unstable
